Laboratory results reported in patent US10251874B2, “Crystalline forms of a JAK inhibitor compound” (THERAVANCE BIOPHARMA R&D IP, LLC, priority 2017, dated 2019).

Legend:
JAK1 = target: T1, JAK1 (Homo sapiens, UniProt P23458); test: Assay 1: LanthaScreen biochemical JAK kinase assay, JAK1; conditions: converted from pIC50 by Cheng-Prusoff; ATP at Km 25 μM; read-out: JAK 1 pKi (converted)
T1 construct: GST; purchased Life Technologies
Protocol: A panel of four LanthaScreen JAK biochemical assays (JAK1, 2, 3 and Tyk2) were carried in a common kinase reaction buffer (50 mM HEPES, pH 7.5, 0.01% Brij-35, 10 mM MgCl2, and 1 mM EGTA). Recombinant GST-tagged JAK enzymes and a GFP-tagged STAT1 peptide substrate were obtained from Life Technologies.
The serially diluted compound was pre-incubated with each of the four JAK enzymes and the substrate in white 384-well microplates (Corning) at ambient temperature for lh. ATP was subsequently added to initiate the kinase reactions in 10 μL total volume, with 1% DMSO. […] The plates were allowed to incubate at ambient temperature for lh before being read on the EnVision reader (Perkin Elmer). Emission ratio signals (520 nm/495 nm) were recorded and utilized to calculate the percent inhibition values based on DMSO and background controls.
For dose-response analysis, percent inhibition data were plotted vs. compound concentrations, and IC50 values were determined from a 4-parameter robust fit model with the Prism software (GraphPad Software). Results were expressed as pIC50 (negative logarithm of IC50) and subsequently converted to pK1 (negative logarithm of dissociation constant, Ki) using the Cheng-Prusoff equation.

[1] = Assay 8: Pharmacokinetics in plasma and lung in mouse; type: in vivo, BALB/c mice; conditions: BALB/c, 10 µg/mouse, oral aspiration, 0.2 mg/mL, 50 uL, read-out: exposure in lung relative to exposure in plasma (lung AUC to plasma AUC ratio)
Protocol: Plasma and lung levels of test compounds and ratios thereof were determined in the following manner. BALB/c mice from Charles River Laboratories were used in the assay. Test compounds were individually formulated in 20% propylene glycol in pH 4 citrate buffer at a concentration of 0.2 mg/mL and 50 uL of the dosing solution was introduced into the trachea of a mouse by oral aspiration. At various time points (typically 0.167, 2, 6, 24 hr) post dosing, blood samples were removed via cardiac puncture and intact lungs were excised from the mice. Blood samples were centrifuged (Eppendorf centrifuge, 5804R) for 4 minutes at approximately 12,000 rpm at 4° C. to collect plasma. Lungs were padded dry, weighed, and homogenized at a dilution of 1:3 in sterile water. Plasma and lung levels of test compound were determined by LC-MS analysis against analytical standards constructed into a standard curve in the test matrix. A lung to plasma ratio was determined as the ratio of the lung AUC in μg hr/g to the plasma AUC in μg hr/mL, where AUC is conventionally defined as the area under the curve of test compound concentration vs. time.

[2] = system: IFNγ induced CXCL9 secretion in EpiAirway tissue cultures; test: Assay 15: IFNγ induced CXCL9 in human 3D airway cultures; type: cell-based; conditions: 192 h, Day 8, average from 3 or 4 donors, read-out: % inhibition of IFNγ induced CXCL9 secretion (±STDV)
Protocol: EpiAirway tissue cultures were obtained from Mattek (AIR-100). Cultures were derived from asthmatic donors. In a cell culture insert, human derived tracheal/bronchial epithelial cells were grown and differentiated on a porous membrane support, allowing an air-liquid interface with warmed culture medium below the cells and a gaseous test atmosphere above. Tissues were cultured in maintenance media (Mattek, AIR-100-MM) in a 37° C., 5% CO2 humidified incubator. Four donors were tested. On Day 0, tissue cultures were treated with test compounds at 10 μM, 1 μM and/or 0.1 μM. Compounds were diluted in dimethyl sulfoxide (DMSO, Sigma) to a final concentration of 0.1%. DMSO at 0.1% was used as a vehicle control. Test compounds were incubated with cultures for 1 hour at 37° C., 5% CO2, followed by the addition of pre-warmed media containing IFNγ (R&D Systems) or IL-27 (R&D Systems) at a final concentration at 100 ng/ml. Tissue cultures were maintained for 8 days. Media was replaced every 2 days with fresh media containing compounds and IFNγ or IL-27. On Day 8, tissue cultures and supernatants were collected for analysis. Supernatant samples were assayed for CXCL10 (IP-10) and CXCL9 (MIG) using luminex analysis (EMD Millipore). Data is expressed as % Inhibition +/−standard deviation (±STDV). Percent inhibition was determined by compound inhibitory potency against IFNγ or IL-27 induced CXCL10 or CXCL9 secretion compared to vehicle treated cells. Data is the average from 3 or 4 donors. Compound 1 was able to inhibit IFNγ induced CXCL10 secretion by 99%±2.0 (at 10 μM), 71%±19 (at […]) and 17%±12 (at 0.1 μM) when compared to vehicle control. Compound 1 was able to inhibit IFNγ induced CXCL9 secretion by 100%±0.3 (at 10 μM), 99%±0.9 (at 1 μM) and 74%±17 (at 0.1 μM) when compared to vehicle. […] Compound 1 was able to inhibit IL-27 induced CXCL9 secretion by 100%±0 (at 10 μM), 95%±3.7 (at 1 μM) and 75%±3.5 (at 0.1 μM) when compared to vehicle control.

T1 sequence (P23458 whole entry): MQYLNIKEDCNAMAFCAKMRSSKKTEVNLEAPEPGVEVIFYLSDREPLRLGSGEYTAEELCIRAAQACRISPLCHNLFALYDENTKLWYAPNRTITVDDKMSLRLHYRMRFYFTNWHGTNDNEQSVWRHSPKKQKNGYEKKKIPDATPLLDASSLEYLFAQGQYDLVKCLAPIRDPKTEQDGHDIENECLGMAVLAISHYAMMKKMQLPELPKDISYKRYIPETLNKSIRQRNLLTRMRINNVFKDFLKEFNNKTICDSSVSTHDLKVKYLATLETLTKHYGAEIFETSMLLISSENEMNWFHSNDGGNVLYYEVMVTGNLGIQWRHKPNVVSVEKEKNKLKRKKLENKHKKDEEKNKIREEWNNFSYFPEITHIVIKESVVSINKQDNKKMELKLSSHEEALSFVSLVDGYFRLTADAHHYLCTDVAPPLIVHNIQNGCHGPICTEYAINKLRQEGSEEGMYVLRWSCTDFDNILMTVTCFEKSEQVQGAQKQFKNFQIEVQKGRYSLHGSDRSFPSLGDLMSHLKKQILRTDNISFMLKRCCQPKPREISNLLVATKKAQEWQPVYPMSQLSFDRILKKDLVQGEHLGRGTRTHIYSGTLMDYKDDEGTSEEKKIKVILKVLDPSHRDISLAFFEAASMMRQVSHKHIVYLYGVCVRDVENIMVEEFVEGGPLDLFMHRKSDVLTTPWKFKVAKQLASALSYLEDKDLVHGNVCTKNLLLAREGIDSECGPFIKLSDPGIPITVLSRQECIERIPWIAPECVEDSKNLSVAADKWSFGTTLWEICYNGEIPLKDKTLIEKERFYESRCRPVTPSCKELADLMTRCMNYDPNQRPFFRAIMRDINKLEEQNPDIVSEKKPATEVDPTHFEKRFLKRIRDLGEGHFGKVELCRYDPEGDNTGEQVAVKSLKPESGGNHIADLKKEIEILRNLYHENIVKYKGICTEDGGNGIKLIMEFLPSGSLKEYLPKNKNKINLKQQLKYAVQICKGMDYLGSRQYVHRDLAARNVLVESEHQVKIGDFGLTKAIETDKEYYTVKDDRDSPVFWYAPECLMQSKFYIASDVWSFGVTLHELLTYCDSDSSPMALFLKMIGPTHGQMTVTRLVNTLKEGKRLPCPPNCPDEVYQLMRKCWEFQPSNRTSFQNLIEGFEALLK

`CCc1cc(O)c(F)cc1-c1ccc2c(-c3nc4c([nH]3)CCN(C3CCN(C)CC3)C4)n[nH]c2c1` [Compound 1, 5-ethyl-2-fluoro-4-(3-(5-(1-methylpiperidin-4-yl)-4,5,6,7-tetrahydro-1H-imidazo[4,5-c]pyridin-2-yl)-1H-indazol-6-yl)phenol] gave a Ki (JAK1) of 0.0631 nM, a Kp [1] of about 55 and an inhibition at 0.1 µM ([2]; at 0.1 μM) of 74%. It also gave an inhibition at 1 µM ([2]; at 1 μM) of 99% and an inhibition at 10 µM ([2]; at 10 μM) of 100%.
